# According to the METLIN SMRT retention time set (Domingo-Almenara et al. 2019):
# Assay: gradient 5% acetonitrile 3 min, to 50% in 2 min, to 85% in 15 min, held 3 min, 100 µL/min
# Details: column: Zorbax Extend-C18 2.1 x 50 mm; eluents: water / acetonitrile, 0.1% formic acid
# How it was run: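 Data were gathered over 3 months by HPLC coupled to a quadrupole time-of-flight mass spectrometer, operated in positive and negative ionization mode. Mixtures of ~100 pure standards ran on a Zorbax Extend-C18 column (2.1 × 50 mm, 1.8 μm) at 100 μL/min, with water and acetonitrile each containing 0.1% formic acid and dead and dwell volumes of 40 μL and 900 μL. Retention time was read from adduct peaks picked by computer and checked manually.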
row,RP-LC retention time,SMILES
1,711 s,CCc1noc2nc(C)nc(N3CCCC(C(=O)NC4CC4)C3)c12 (stereo not given)
2,877 s,Fc1ccccc1-c1noc(-c2nc(-c3cnccn3)no2)n1
3,652 s,Cc1noc(C)c1CCNC(=O)c1cc(-c2cccnc2)nc2ccccc12
4,1140 s,COc1ccc(-n2nnc(-c3nc(-c4cc(OC)ccc4OC)cs3)c2C)cc1
5,1130 s,Cc1ccc(C)c(Cn2nc3ccc(S(=O)(=O)N4CCC(C)CC4)cn3c2=O)c1
6,1120 s,CC(C)Cc1ccc(S(=O)(=O)N2C[C@@H](F)C[C@H]2C(=O)N2CCc3ccccc3C2)cc1
7,601 s,O=C(CN1CCN(Cc2ccccc2)C1=O)N1CCN(C2CCCCC2)CC1
8,888 s,Cc1noc(-c2cc(=O)n(CC(=O)NCc3ccc(Cl)cc3)c3ccccc23)n1
9,729 s,Cc1ccc(NC(=O)C2CCN(S(=O)(=O)c3c(C)[nH]c(C)c3C(=O)N3CCCC3)CC2)c(C)c1
10,1090 s,CN(C(=O)CSc1nnc(-c2ccc(Cl)cc2)o1)C1CCCCC1
11,964 s,COc1cccc(C(=O)NC2(C(F)(F)F)C(=O)N(C3CCCC3)C(C)=C2C(C)=O)c1 (stereo not given)
12,813 s,CC(C)CCNC(=O)N1CCC2(CC1)C(=O)N(C)c1ccccc12
13,842 s,CCc1onc(C)c1C1CCCN1C(=O)Nc1cccc(C)c1 (stereo not given)
14,542 s,O=C(NCCCN1CCCC1)C1CCN(c2cnc(N3CCCC3)nc2)CC1
15,748 s,O=C(CCn1c(N2CCCC2)nc2ccsc2c1=O)NCc1ccccc1F
16,641 s,COCC(=O)N(C1CCOCC1)C1CCN(S(=O)(=O)c2cccnc2)CC1
17,683 s,CNC(=O)C1CCN(Cc2cc3ccccc3n2Cc2cccc(Cl)c2)CC1
18,808 s,Cc1nn(-c2ccc(F)cc2)c2c1c(=O)c(C(=O)NCc1cccs1)cn2C
19,635 s,Cc1nc2cccnc2n1C1CCN(C(=O)Nc2ccccc2Cl)CC1
20,631 s,CCS(=O)(=O)N1CCC(Cc2nncn2-c2ccccc2)C1 (stereo not given)
21,808 s,COc1ccc(CNC(=O)Nc2ccccc2NC(=O)c2cccc(Cl)c2)cc1OC
22,708 s,Cc1cc2nn(CC(=O)N3CCOCC3)c(=O)n2c(-c2cccc(Cl)c2)n1

row,RP-LC retention time,SMILES
1,848 s,COc1ccccc1-c1noc(C2CCCN2C(=O)Nc2ccccc2)n1 (stereo not given)
2,639 s,COc1cccc(Cn2ccc3ccn(CCN(C)C)c3c2=O)c1
3,1070 s,Cc1ccc(Cc2nc(-c3ccc4oc(C)nc4c3)no2)cc1
4,854 s,COc1cc(NC(=O)C2CCCN(c3cc(=O)n(C)c(=O)n3C)C2)cc(OC)c1OC (stereo not given)
5,762 s,CCOC(=O)c1ccc(NC(=O)C2CCCN(S(C)(=O)=O)C2)cc1 (stereo not given)
6,958 s,Cc1ccc(NC(=O)Cn2nc(N(C)C)c3ccccc3c2=O)cc1Cl
7,822 s,O=C(NCC(=O)N1CCCc2ccccc21)c1cccc(Br)c1
8,889 s,COc1cc(-c2nnc(SCC(=O)N3CCCC(C)C3)o2)cc(OC)c1OC (stereo not given)
9,936 s,Cc1nc(-c2nnn(-c3ccccc3)c2C)sc1C(=O)NCCc1cccs1
10,651 s,CC1=C(c2cccc(Cl)c2)S(=O)(=O)N=C1N1CCC(NC(=O)NCC(C)C)CC1
11,662 s,CCC(=O)N1CCc2cc(C(=O)N3CCN(C(=O)c4ccco4)CC3)ccc21
12,832 s,COC(=O)c1ccc(C(=O)N(Cc2ccsc2)Cc2ccco2)cc1
13,761 s,CCOc1ccc(-n2ccn3c(CCCC(=O)NCCc4c[nH]c5ccccc45)nnc3c2=O)cc1
14,556 s,CCN(CC)CCNC(=O)Cc1cc(-c2ccc(F)cc2F)on1
15,920 s,O=c1c2c(CO)c(-c3ccccc3)nn2ccn1Cc1cccc(F)c1
16,585 s,CN(C)[C@@H]1CN(C(=O)C2CCCCC2)CC[C@@H]1CO
17,845 s,CCOc1ccc(N2C=C(C(=O)N3CCOCC3)S(=O)(=O)c3ccc(F)cc32)cc1
18,687 s,CCOc1ccccc1NC(=O)Cn1c(CC)nc2c(c1=O)CN(Cc1ccccc1)CC2
19,964 s,COc1ccc(-n2c(=O)c3sccc3n(Cc3nc(-c4ccc(F)cc4)no3)c2=O)cc1
20,915 s,Clc1ccccc1C1Cn2cnc(-c3nc(-c4ccncc4)no3)c2CO1 (stereo not given)
21,691 s,O=C(Nc1cccc(Cl)c1)Nn1cnnc1
22,700 s,CCS(=O)(=O)N1CCCc2cc(C(=O)NCCCOC)ccc21

row,RP-LC retention time,SMILES
1,654 s,Cc1ccc2nc(-c3ccc(C)c(NC(=O)C(C)C)c3)[nH]c2c1
2,1120 s,Cc1ccc(-c2ccnc(SCC(=O)Nc3ccccc3C(F)(F)F)n2)cc1C
3,966 s,Cc1ccc(C)c(CNC(=O)c2cc3c(=O)n(C)c4ccccc4n3n2)c1
4,658 s,CCOc1ccc(C(=O)NC2CCN(c3cc(-c4cccs4)[nH]n3)C2)cc1 (stereo not given)
5,1110 s,COc1cc(C(=O)Nc2nc3c(s2)CCc2ccccc2-3)cc(OC)c1OC
6,955 s,CCc1csc(-c2ccc(N3CCN(C(=O)c4ccc(F)c(F)c4)CC3)nc2)n1
7,1000 s,O=C([C@@H]1C[C@H](F)CN1S(=O)(=O)Cc1cccc(Cl)c1)N1CCc2ccccc2C1
8,702 s,CN(Cc1ccccc1)C(=O)CC(=O)Nc1ccc2nc3n(c(=O)c2c1)CCCCC3
9,602 s,Cn1c(=O)n(C)c2cc(S(=O)(=O)N3CCN(c4ccccn4)CC3)c(Cl)cc21
10,751 s,O=S(=O)(Nc1cccn2c(C3CCC3)nnc12)c1ccc2c(c1)OCCO2
11,787 s,COc1ccc(-c2nc(C3CC(=O)N(c4ccc(OC)c(OC)c4)C3)no2)cc1OC (stereo not given)
12,594 s,O=C(NCc1cc(F)cc(F)c1)c1ccc2c(c1)ncn2CCN1CCCC1
13,772 s,COc1ccc(OC)c(NC(=O)C2CCCN2S(=O)(=O)c2cc3c(cc2C)NC(=O)CO3)c1 (stereo not given)
14,893 s,Cc1ccc(C)c(CNC(=O)c2cccn2Cc2noc(C)n2)c1
15,792 s,CCc1ccc(NC(=O)Cn2c(-c3cnccn3)nc(C)c(C)c2=O)cc1
16,1030 s,O=S(=O)(c1ccc2nc(N3CCN(c4ccccc4)CC3)ccc2c1)N1CCCCC1
17,868 s,CCCCN(C)C(=O)c1c(C)oc2ccn(Cc3ccc(F)cc3)c(=O)c12
18,717 s,COc1cc2c(cc1NC(=O)c1cccs1)n(C)c(=O)n2C
19,638 s,COc1ccc(C(=O)NCc2ccc(OCCN(C)C)cc2)cc1OC
20,647 s,COc1ccc(CCC(=O)NC2CCN(c3nnc4cccc(C)n34)CC2)cc1
21,631 s,Cc1cccc(C(=O)NCC(=O)Nc2nc3ccccc3[nH]2)c1
22,568 s,CCCCC(=O)Nc1ncn[nH]1

row,RP-LC retention time,SMILES
1,903 s,Cc1ccccc1-c1nc(C)c(C(=O)NC(C)C)s1
2,725 s,COC(=O)c1cc(OCC(=O)NC2CCCCC2)c2cc(OC)c(OC)cc2n1
3,1060 s,Fc1cc(F)cc(-c2nc(-c3cccc(-c4ccn[nH]4)c3)no2)c1
4,833 s,CN(Cc1cccs1)C(=O)Nc1ccccc1
5,763 s,COc1ccccc1-c1noc(C2CCCN2C(=O)c2ccoc2)n1 (stereo not given)
6,639 s,CCCN(CC1CCOC1)C(=O)Nc1ccc(Cl)cc1C (stereo not given)
7,611 s,N#Cc1cccc(-c2cn3c(n2)N(C(=O)c2ccncc2)CCC3)c1
8,723 s,O=C(Nc1cccc(Cl)c1)Nc1ccc2nc3n(c(=O)c2c1)CCCC3
9,755 s,Cc1cc2c(N3CCCC(C(=O)N4CCN(c5ccccc5F)CC4)C3)nccc2s1 (stereo not given)
10,564 s,O=C(CCC1CCCN(c2cc(NC3CC3)ncn2)C1)NCCc1ccncc1 (stereo not given)
11,1270 s,COc1cccc(C2Cn3nnc(-c4nc(-c5ccc(C)c(C)c5)no4)c3CO2)c1 (stereo not given)
12,783 s,CCOc1ccc(S(=O)(=O)N2CCC(C(=O)NCCOC)CC2)cc1C
13,642 s,COc1ccccc1-n1c(SCC(=O)Nc2ncn[nH]2)nc2ccccc2c1=O
14,1060 s,CCCn1cc(C(=O)NCC(=O)OCC)c(S(=O)(=O)N2CCN(c3cccc(Cl)c3)CC2)n1
15,929 s,Cc1ccc(/C=C/S(=O)(=O)N2CCN(c3ccc(-c4cccs4)nn3)CC2)cc1
16,945 s,Cc1ccc(NC(=O)c2cccn2Cc2noc(C)n2)c(Cl)c1
17,955 s,Cc1cc(N2CCN(S(=O)(=O)c3ccc4cccc5c4c3CC5)CC2)nc(NC2CCCCC2)n1
18,1110 s,O=c1c2sccc2n(Cc2nc(-c3ccccc3Cl)no2)c(=O)n1Cc1ccc(F)cc1
19,629 s,O=C(CCn1c(N2CCCCC2)nc2ccsc2c1=O)N1CCN(c2ccccn2)CC1
20,1150 s,CCCn1nc(-c2nc(-c3cccc(Cl)c3)no2)ccc1=O
21,750 s,CCOc1ccc(-n2cc(C(=O)OCc3ccccn3)c3ccccc3c2=O)cc1
22,656 s,Cc1cccc(-c2nc3ccccn3c2NC(=O)NCc2ccccc2)c1

row,SMILES,RP-LC retention time
1,COc1ccc2c(c1)C13CCN(C)C(C2)C1CCC1(C3)OCCO1 (stereo not given),645 s
2,CN1[C@@H]2CC[C@H]1CC(OC(=O)C1C=Nc3ccccc31)C2 (stereo not given in full),656 s
